pKi: −log10 of the molar value.

Series [1] addresses serum albumin (Homo sapiens, UniProt P02768). Nature of the series: Binding affinity to human serum albumin by HPLC analysis. It counts as ADME. The note with it: read-out: PB (converted).
The target in series [2] is Translocator protein (Rattus norvegicus, UniProt P16257). The series is described as follows: Displacement of [3H]-PK11195 from TSPO in Sprague-Dawley rat brain homogenates after 90 mins by liquid scintillation counting analysis. It counts as tissue-based.
Sequence of Translocator protein (P16257 whole entry, looked up): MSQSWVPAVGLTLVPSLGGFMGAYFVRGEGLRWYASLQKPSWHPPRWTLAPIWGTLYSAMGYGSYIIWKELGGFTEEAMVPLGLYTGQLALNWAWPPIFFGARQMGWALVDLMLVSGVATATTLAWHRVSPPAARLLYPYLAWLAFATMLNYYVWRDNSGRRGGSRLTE
Series [3] is described as follows: Permeability of the compound using immobilized artificial membrane. It counts as physicochemical.

Sequence of serum albumin (P02768 whole entry): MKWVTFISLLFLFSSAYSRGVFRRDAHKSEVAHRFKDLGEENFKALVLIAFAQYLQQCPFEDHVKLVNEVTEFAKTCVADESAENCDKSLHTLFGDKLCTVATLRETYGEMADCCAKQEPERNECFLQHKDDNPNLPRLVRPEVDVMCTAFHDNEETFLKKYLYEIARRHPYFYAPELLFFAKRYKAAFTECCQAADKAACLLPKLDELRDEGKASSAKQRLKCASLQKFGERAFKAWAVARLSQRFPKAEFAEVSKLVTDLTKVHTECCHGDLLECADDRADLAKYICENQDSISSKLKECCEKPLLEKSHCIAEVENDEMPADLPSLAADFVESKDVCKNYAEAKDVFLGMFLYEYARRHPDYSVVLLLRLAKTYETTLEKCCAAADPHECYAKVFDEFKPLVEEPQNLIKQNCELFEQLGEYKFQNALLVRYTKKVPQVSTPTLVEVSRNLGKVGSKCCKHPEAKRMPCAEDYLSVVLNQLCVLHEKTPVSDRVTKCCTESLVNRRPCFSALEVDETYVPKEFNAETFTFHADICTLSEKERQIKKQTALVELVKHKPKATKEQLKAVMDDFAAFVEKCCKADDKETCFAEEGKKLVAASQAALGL

Turning to `O=C(c1cc(-c2ccccc2)c2cc(F)ccc2n1)N1CCOCC1`, the fraction unbound in series [1] is 0.122. The compound also showed a pKi in series [2] of 5.24. The Pm in series [3] is reported as 0.25.
Taken in the same sequence, the figures for `CN(C)C(=O)c1nc2ccccc2c(-c2ccccc2)c1CI` were 0.0498, 5.87 and 0.55.
For `O=C(c1nc2ccccc2c(-c2ccccc2)c1CI)N1CCOCC1`, in series [1], the fraction unbound is 0.047. This compound also showed a pKi in series [2] of 7.56. The compound also displayed a Pm in series [3] of 0.54.
`O=C(c1cc(-c2ccccc2)c2cc(I)ccc2n1)N1CCOCC1`: the fraction unbound in series [1] is 0.0462. In series [2], the pKi was 4.52. The compound further had a Pm in series [3] of 0.55.
In the case of `O=C(c1cc(-c2ccccc2)c2cccc(I)c2n1)N1CCOCC1`, the fraction unbound in series [1] is 0.0181. The pKi in series [2] was 4.12. In series [3], the Pm was determined as 0.41.
On the same counts, the results for `O=C(c1cc(-c2ccccc2I)c2ccccc2n1)N1CCOCC1` are 0.0876, 6.03 and 0.26.
Taken in the same sequence, the figures for `CCN(CC)C(=O)c1cc(-c2ccccc2I)c2ccccc2n1` were 0.0591, 8.30 and 0.67.
In the case of `CCC(C)N(C)C(=O)c1cc2ccccc2c(-c2ccccc2Cl)n1` (stereo not drawn) [PK-11195], the fraction unbound in series [1] was 0.0772. Besides, the Pm in series [3] was found to be 0.64.

The values are drawn from ChEMBL document CHEMBL3217571, “Structureactivity relationships of novel iodinated quinoline-2-carboxamides for targeting the translocator protein” (Medchemcomm, 2013).
